Measurements reported in ChEMBL document CHEMBL1240407, “Prevalence, resistance mechanisms, and susceptibility of multidrug-resistant bloodstream isolates of Pseudomonas aeruginosa” (2010).
≈ marks a conversion by molar mass, not a printed value.

Experiments:
Format in all cases: functional
Pseudomonas aeruginosa [1] = assay: Antimicrobial activity against MexB overexpressing Pseudomonas aeruginosa isolate PA8108 harboring gyrA T83I mutant gene by Etest method
Pseudomonas aeruginosa [2] = assay: Antimicrobial activity against Pseudomonas aeruginosa isolate PA1166 harboring gyrA T83I and parC S87L mutant gene by Etest method
Pseudomonas aeruginosa [3] = assay: Antimicrobial activity against Pseudomonas aeruginosa isolate PA27853 by Etest method
Pseudomonas aeruginosa [4] = assay: Antimicrobial activity against Pseudomonas aeruginosa isolate PA8119 harboring gyrA T83I and parC S87L mutant gene by Etest method
Pseudomonas aeruginosa [5] = assay: Antimicrobial activity against MexB overexpressing Pseudomonas aeruginosa isolate PA1378 harboring gyrA T83I mutant gene by Etest method
Pseudomonas aeruginosa [6] = assay: Antimicrobial activity against MexB overexpressing Pseudomonas aeruginosa isolate PA1328 harboring gyrA T83I and parC S87L mutant gene by Etest method
Pseudomonas aeruginosa [7] = assay: Antimicrobial activity against Pseudomonas aeruginosa isolate PA8858 harboring gyrA T83I and parC S87L mutant gene by Etest method
Pseudomonas aeruginosa [8] = assay: Antimicrobial activity against MexB overexpressing Pseudomonas aeruginosa isolate PA6218 harboring gyrA D87N mutant gene by Etest method
Pseudomonas aeruginosa [9] = assay: Antimicrobial activity against MexB overexpressing Pseudomonas aeruginosa isolate PA1327 harboring gyrA T83I and parC S87L mutant gene by Etest method
Pseudomonas aeruginosa [10] = assay: Antimicrobial activity against MexB overexpressing Pseudomonas aeruginosa isolate PA707 harboring gyrA T83I and parC S87L mutant gene by Etest method
Pseudomonas aeruginosa [11] = assay: Antimicrobial activity against Pseudomonas aeruginosa isolate PA7461 harboring gyrA T83I and parC S87L mutant gene by Etest method
Pseudomonas aeruginosa [12] = assay: Antimicrobial activity against MexB overexpressing Pseudomonas aeruginosa isolate PA9087 harboring gyrA T83I mutant gene by Etest method
Pseudomonas aeruginosa [13] = assay: Antimicrobial activity against Pseudomonas aeruginosa isolate PA8721 harboring gyrA T83I and parC S87L mutant gene by Etest method
Pseudomonas aeruginosa [14] = assay: Antimicrobial activity against MexB overexpressing Pseudomonas aeruginosa isolate PA1165 harboring gyrA T83I and parC S87L mutant gene by Etest method
Pseudomonas aeruginosa [15] = assay: Antimicrobial activity against Pseudomonas aeruginosa isolate PA5600 harboring gyrA T83I and parC S87L mutant gene by Etest method
Pseudomonas aeruginosa [16] = assay: Antimicrobial activity against Pseudomonas aeruginosa isolate PA641 parC P105T mutant gene by Etest method
Pseudomonas aeruginosa [17] = assay: Antimicrobial activity against Pseudomonas aeruginosa isolate PA5513 harboring gyrA T83I and parC S87L mutant gene by Etest method
Pseudomonas aeruginosa [18] = assay: Antimicrobial activity against Pseudomonas aeruginosa isolate PA9019 harboring gyrA D87G and parC S87L mutant gene by Etest method
Pseudomonas aeruginosa [19] = assay: Antimicrobial activity against Pseudomonas aeruginosa isolate PA5441 harboring gyrA T83I and parC S87L mutant gene by Etest method

| Compound | MIC50 (Pseudomonas aeruginosa [1]) | MIC50 (Pseudomonas aeruginosa [2]) | MIC50 (Pseudomonas aeruginosa [3]) | MIC50 (Pseudomonas aeruginosa [4]) | MIC50 (Pseudomonas aeruginosa [5]) | MIC50 (Pseudomonas aeruginosa [6]) | MIC50 (Pseudomonas aeruginosa [7]) | MIC50 (Pseudomonas aeruginosa [8]) | MIC50 (Pseudomonas aeruginosa [9]) | MIC50 (Pseudomonas aeruginosa [10]) | MIC50 (Pseudomonas aeruginosa [11]) | MIC50 (Pseudomonas aeruginosa [12]) | MIC50 (Pseudomonas aeruginosa [13]) | MIC50 (Pseudomonas aeruginosa [14]) | MIC50 (Pseudomonas aeruginosa [15]) | MIC50 (Pseudomonas aeruginosa [16]) | MIC50 (Pseudomonas aeruginosa [17]) | MIC50 (Pseudomonas aeruginosa [18]) | MIC50 (Pseudomonas aeruginosa [19]) | further results |
| --- | --- | --- | --- | --- | --- | --- | --- | --- | --- | --- | --- | --- | --- | --- | --- | --- | --- | --- | --- | --- |
| COLISTIN | 0.25 µg/mL | 1 µg/mL | 1.5 µg/mL | 1.5 µg/mL | 2 µg/mL | 1.5 µg/mL | 1.5 µg/mL | 3 µg/mL | 2 µg/mL | 1 µg/mL | 2 µg/mL | 0.38 µg/mL | 1.5 µg/mL | 1.5 µg/mL | 1 µg/mL | 1.5 µg/mL | 1 µg/mL | 1.5 µg/mL | 1.5 µg/mL |  |
| C[C@@H](O)[C@H]1C(=O)N2C(C(=O)O)=C(S[C@@H]3CN[C@H](CNS(N)(=O)=O)C3)[C@H](C)[C@H]12 [DORIPENEM] |  | 24 µg/mL (≈ 57.1 µM) | 0.19 µg/mL (≈ 0.452 µM) | 16 µg/mL (≈ 38 µM) |  | 3 µg/mL (≈ 7.13 µM) | 8 µg/mL (≈ 19 µM) |  | 8 µg/mL (≈ 19 µM) |  | 12 µg/mL (≈ 28.5 µM) | 6 µg/mL (≈ 14.3 µM) |  | 12 µg/mL (≈ 28.5 µM) | 4 µg/mL (≈ 9.51 µM) |  |  |  | 4 µg/mL (≈ 9.51 µM) | MIC90 (Pseudomonas aeruginosa [1]): > 32 µg/mL; MIC90 (Pseudomonas aeruginosa [5]): > 32 µg/mL; MIC90 (Pseudomonas aeruginosa [8]): > 32 µg/mL; MIC90 (Pseudomonas aeruginosa [10]): > 32 µg/mL; MIC90 (Pseudomonas aeruginosa [13]): 32 µg/mL (≈ 76.1 µM); MIC90 (Pseudomonas aeruginosa [16]): > 32 µg/mL; MIC90 (Pseudomonas aeruginosa [17]): > 32 µg/mL; MIC90 (Pseudomonas aeruginosa [18]): > 32 µg/mL |
| POLYMYXIN B | 0.25 µg/mL | 0.75 µg/mL | 1.5 µg/mL | 1.5 µg/mL | 1.5 µg/mL | 1.5 µg/mL |  | 1.5 µg/mL | 1 µg/mL | 0.75 µg/mL |  | 0.5 µg/mL | 1.5 µg/mL | 1.5 µg/mL | 1.5 µg/mL | 1 µg/mL | 1 µg/mL | 1 µg/mL | 1.5 µg/mL |  |
